# Key:
# mHspAT [1] = biological target: T1, mHspAT (Mycobacterium tuberculosis, UniProt P9WML7); type: biochemical; details: pH 8.4, 37 °C
# T1 construct: gene hisC; recombinant, vector pYUB1062, over-expressed in M. smegmatis mc2 4517; homodimer
# mArAT [2] = biological target: T2, mArAT (Mycobacterium tuberculosis, UniProt P9WML5)
# T2 construct: gene pat
# mHspAT [3] = biological target: T1, mHspAT; type: binding
# N[C@@H](Cc1ccccc1)C(=O)O = experiment: purified protein; details: pH 8.4; 37.0 °C
# [4] = system: N[C@H](COP(=O)(O)O)Cc1c[nH]cn1; experiment: purified protein; details: pH 8.4; 37.0 °C
# mArAT [5] = biological target: T2, mArAT; remark: listed apart in the source
# T2 sequence (P9WML5 whole entry): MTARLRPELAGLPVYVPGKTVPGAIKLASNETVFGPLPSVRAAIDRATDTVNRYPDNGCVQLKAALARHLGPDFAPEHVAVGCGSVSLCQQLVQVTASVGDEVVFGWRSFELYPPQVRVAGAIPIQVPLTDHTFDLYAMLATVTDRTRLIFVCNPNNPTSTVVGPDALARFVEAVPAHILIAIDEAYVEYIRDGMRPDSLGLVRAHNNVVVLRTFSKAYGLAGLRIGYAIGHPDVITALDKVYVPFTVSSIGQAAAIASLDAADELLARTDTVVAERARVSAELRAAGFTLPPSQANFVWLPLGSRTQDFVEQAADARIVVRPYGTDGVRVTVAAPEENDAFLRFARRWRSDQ
# T1 sequence (P9WML7 whole entry): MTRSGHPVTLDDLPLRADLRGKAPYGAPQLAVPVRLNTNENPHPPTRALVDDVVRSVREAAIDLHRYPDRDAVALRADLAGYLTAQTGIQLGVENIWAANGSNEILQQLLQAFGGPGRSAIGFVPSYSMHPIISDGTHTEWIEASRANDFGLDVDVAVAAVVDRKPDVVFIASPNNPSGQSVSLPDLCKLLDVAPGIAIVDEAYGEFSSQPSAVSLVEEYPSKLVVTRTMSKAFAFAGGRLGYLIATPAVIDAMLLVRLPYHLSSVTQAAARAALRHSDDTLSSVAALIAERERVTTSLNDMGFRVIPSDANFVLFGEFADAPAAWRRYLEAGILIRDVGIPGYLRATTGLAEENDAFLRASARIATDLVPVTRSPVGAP
compound,measurement,setting,value
O=S(=O)(O)CCN1CCOCC1 [MES],Vo'/Vo,mHspAT [1],concentration dependent inhibition of mHspAT-Hsp activity with MES
N[C@@H](Cc1ccccc1)C(=O)O [Phe],"crystal structure, 1.98 Å",mArAT [2],Phe is present in the active site of both the monomers of a homodimer
Cc1ncc(COP(=O)(O)O)c(C=O)c1O [PLP],"crystal structure, 1.98 Å",mArAT [2],it exists as a PLP-Phe external aldimine intermediate complex in one of the monomers
same,"crystal structure, 2.05 Å",mHspAT [3],binding of the PLP as an internal aldimine via a Schiff’s base with Lys232 Nζ
mHspAT (Mycobacterium tuberculosis H37Rv),Km,N[C@@H](Cc1ccccc1)C(=O)O,7.1 ± 0.81 mM
same,kcat/Km,N[C@@H](Cc1ccccc1)C(=O)O,30000 ± 3000 M⁻¹ s⁻¹
same,Km,[4],0.42 ± 0.02 mM
same,kcat/Km,[4],1.02e+06 ± 87000 M⁻¹ s⁻¹
Cc1ncc(COP(=O)(O)O)c(CN)c1O [PMP],"crystal structure, 1.95 Å",mArAT [5],"In the active site of mArAT, indigenously bound PMP and succinate were modelled"
O=C(O)CCC(=O)O [succinate],"crystal structure, 1.95 Å",mArAT [5],"In the dicarboxylate bound form, succinate exists as a non-covalently linked moiety"
